Laboratory results published in US20210283163A1, “COMPOSITIONS AND METHODS FOR THE TREATMENT OF ACUTE AND CHRONIC PRURITIS” (Duke University, priority 2018, published 2021).

Columns and labels:
Assay type in all cases: cell-based
hTRPA1 = hTRPA1 (Homo sapiens, UniProt O75762); assay: Calcium imaging (Fura-2) in TRPA1-expressing HEK293 cells; details: 50 μM
Method: Ca^2+ Imaging. Ca ^2+ imaging was conducted in mouse DRG and TG neurons from Pirt-GCaMP3 mice (Anderson et al., Neurosci. Bull. 2018, 34, 194-199) at room temperature. The imaging buffer includes 140 mM NaCl, 10 mM D-(+)-Glucose, 1 mM MgCl2, 2 mM CaCl2, 5 mM KCl, 10 mM HEPES, pH=7.4, osmolarity=320 mOsm/L. Calcium signals were measured using green emitted light in a 3 s interval. Ca ^2+ signal amplitudes were presented as ΔF/F0=(Ft−F0)/F0 as ratio of fluorescence difference (Ft−F0) to basal value (F0). The average fluorescence intensity in the baseline period was taken as F0. Ca ^2+ imaging was also analyzed in HEK293-TRPA1 cell line after loading cells with […] fura2-AM (Invitrogen) for 40 min in the Ca^2+ imaging buffer. Ca^2+ imaging protocol was a ratio metric method with 340/380-nm wavelength light for dual excitation. Data were presented as ΔR/R0, determined as the fraction ΔR (Rt−R0) of the increase of a given ratio over baseline ratio (R0).

mTRPA1 mutants (M1-M13) [1] = molecular target: T1, mTRPA1 mutants (M1-M13) (Mus musculus, UniProt Q8BLA8, L939A/P937A/Y936A); assay: Whole-cell patch clamp in CHO cells transfected with mutant mTrpa1 cDNAs (M1-M13); details: M13, triple mutations (Y936, P937, and L939)
T1 construct: HA; expressed in transfected cells; host or cells: CHO cells (ATCC CRL-9096), transient transfection
T1 sequence (Q8BLA8 whole entry Y936A/P937A/L939A): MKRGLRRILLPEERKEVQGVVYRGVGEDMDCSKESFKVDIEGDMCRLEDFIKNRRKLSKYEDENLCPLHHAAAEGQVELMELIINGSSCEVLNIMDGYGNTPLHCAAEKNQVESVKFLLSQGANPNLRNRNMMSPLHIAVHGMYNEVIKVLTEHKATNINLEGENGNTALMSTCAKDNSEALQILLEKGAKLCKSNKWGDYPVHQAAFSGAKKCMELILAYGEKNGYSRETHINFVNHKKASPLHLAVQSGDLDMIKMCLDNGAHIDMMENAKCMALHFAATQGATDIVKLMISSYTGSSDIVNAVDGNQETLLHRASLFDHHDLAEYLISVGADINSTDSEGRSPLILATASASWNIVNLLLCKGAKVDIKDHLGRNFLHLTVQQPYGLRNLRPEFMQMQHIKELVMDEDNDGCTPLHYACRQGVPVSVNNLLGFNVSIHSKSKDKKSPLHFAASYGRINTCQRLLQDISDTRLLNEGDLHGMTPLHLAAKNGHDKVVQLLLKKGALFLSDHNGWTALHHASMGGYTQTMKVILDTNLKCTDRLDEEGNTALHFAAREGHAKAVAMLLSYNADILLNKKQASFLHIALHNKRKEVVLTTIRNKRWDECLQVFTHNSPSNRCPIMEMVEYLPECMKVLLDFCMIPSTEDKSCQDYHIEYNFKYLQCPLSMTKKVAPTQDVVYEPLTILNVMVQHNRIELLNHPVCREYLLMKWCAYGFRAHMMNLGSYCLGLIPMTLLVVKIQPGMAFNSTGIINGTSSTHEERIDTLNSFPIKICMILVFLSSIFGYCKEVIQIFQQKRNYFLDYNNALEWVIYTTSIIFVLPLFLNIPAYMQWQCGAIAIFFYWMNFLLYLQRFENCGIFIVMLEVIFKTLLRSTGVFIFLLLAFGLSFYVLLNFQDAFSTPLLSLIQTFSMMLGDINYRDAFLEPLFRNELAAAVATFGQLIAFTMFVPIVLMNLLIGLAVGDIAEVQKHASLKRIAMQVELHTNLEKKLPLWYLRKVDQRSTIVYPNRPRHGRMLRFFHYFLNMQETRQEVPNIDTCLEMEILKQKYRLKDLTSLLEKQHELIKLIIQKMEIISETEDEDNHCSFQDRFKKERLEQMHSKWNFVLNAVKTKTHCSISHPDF
Method: (§1) Constructs. The cDNAs of mouse pcDNA3.1-Trpa1, pcDNA3.1-Trpv1, pcDNA3.1-Trpv2, pcDNA3.1-Trpv3, and pcDNA3.1-Trpv4 were kindly provided Dr. Sun Work Hwang from Korea University. Mouse Trpa1 cDNA was subcloned into pCGN-HA backbone (Addgene) using In-Fusion HD Cloning Kit (Clontech Laboratories, CA). Q5 Site-Directed Mutagenesis Kit was used to generate mTrpa1 mutant (M1-M13) based on pCGN-mTrpa1.
(§2) Cell Culture and Transfection. CD4^+ Myla cell line was cultured in RPMI 1640 media (GIBCO), supplemented with 2 mM Glutamine (GIBCO), 100 U/mL IL-2 (Sigma), 100 U/mL IL-4 (Sigma), and 10% human AB serum (Sigma). HuT 102 cell line was cultured in RPMI 1640 supplemented with pyruvate, HEPES, and 10% (v/v) fetal bovine serum (HyClone). HEK293-hTRPA1 stable cell line was cultured in MEM (GIBCO) containing 2 mM Glutamine, 4 μg/mL Blasticidin, 10% FBS (v/v). B16 and CHO cells were cultured in high glucose (4.5 g/L) Dulbecco's Modified Eagle's Medium (GIBCO) containing 10% (v/v) fetal bovine serum (GIBCO). Culture media were supplemented with 50 units/mL of penicillin and 50 μg/mL streptomycin, and cultures were maintained with 5% CO2 in 37° C. incubator. Transfection (2 μg cDNA) was performed with Lipofectamine™ 2000 Reagent (Invitrogen) at 80% confluency and the transfected cells were cultured in the same media for 48 hr before electrophysiological and biochemical studies.
(§3) Whole-Cell Patch Clamp Recordings in HEK293 Cells, CHO Cells, and DRG Neurons. Whole-cell patch clamp recordings were performed at room temperature using an Axopatch-200B amplifier (Axon Instruments) with a Digidata 1440B (Axon Instruments). In this study, we only examined small-diameter mouse DRG neurons (<25 μM) and small-diameter human DRG neurons (<55 μM). The patch pipettes were pulled from borosilicate capillaries (World Precision Instruments) using a P-97 Flaming/Brown micropipette puller (Sutter Instrument). Pipette resistance was 4-6 MΩ for whole-cell and outside-out recording. For inward current recordings in mouse and human DRG neurons, HEK293 cells, and CHO cells, the internal solution contains (in mM): 140 CsCl, 10 EGTA, 10 HEPES, and 2 Mg-ATP, adjusted to pH 7.3 with CsOH. Whole cell recordings were performed in an extracellular solution that contains (in mM): 140 NaCl, 5 KCl, 2 MgCl2, 10 HEPES, and 10 glucose, adjusted to pH 7.4 with NaOH and osmolarity to 300-310 mOsm. […] Action potential recordings were performed in small-diameter DRG neurons, with the following solutions: i) internal pipette solution contains: 126 mM K-gluconate, 10 mM NaCl, 1 mM MgCl2, 10 mM EGTA, 10 mM HEPES and 2 mM Na-ATP, adjusted to pH 7.4 with KOH and osmolarity to 295-300 mOsm), and ii) extracellular solution contains: 140 mM NaCl, 5 mM KCl, 2 mM MgCl2, 2 mM CaCl2, 10 mM HEPES, 10 mM glucose, adjusted to pH 7.4 with KOH.

mTRPA1 mutants (M1-M13) [2] = molecular target: T2, mTRPA1 mutants (M1-M13) (Mus musculus, UniProt Q8BLA8, P937A); assay: as above; details: M11, single residue mutation of mP937
T2 construct: HA; expressed in transfected cells; host or cells: CHO cells (ATCC CRL-9096), transient transfection
T2 sequence (Q8BLA8 whole entry P937A): as the sequence (Q8BLA8 whole entry Y936A/P937A/L939A) above, with A936Y, A939L counted along it
Method: as §1, §2, §3

TRPV2 = molecular target: T3, TRPV2 (Mus musculus, UniProt Q9WTR1); assay: Whole-cell patch clamp in CHO cells transfected with mouse Trpv2 cDNA; details: miR-711 10 μM; cannabidiol 100 μM
T3 construct: expressed in transfected cells; host or cells: CHO cells (ATCC CRL-9096), plasmid pcDNA3.1-mTrpv2, a gift from Korea University
T3 sequence (Q9WTR1 1-756): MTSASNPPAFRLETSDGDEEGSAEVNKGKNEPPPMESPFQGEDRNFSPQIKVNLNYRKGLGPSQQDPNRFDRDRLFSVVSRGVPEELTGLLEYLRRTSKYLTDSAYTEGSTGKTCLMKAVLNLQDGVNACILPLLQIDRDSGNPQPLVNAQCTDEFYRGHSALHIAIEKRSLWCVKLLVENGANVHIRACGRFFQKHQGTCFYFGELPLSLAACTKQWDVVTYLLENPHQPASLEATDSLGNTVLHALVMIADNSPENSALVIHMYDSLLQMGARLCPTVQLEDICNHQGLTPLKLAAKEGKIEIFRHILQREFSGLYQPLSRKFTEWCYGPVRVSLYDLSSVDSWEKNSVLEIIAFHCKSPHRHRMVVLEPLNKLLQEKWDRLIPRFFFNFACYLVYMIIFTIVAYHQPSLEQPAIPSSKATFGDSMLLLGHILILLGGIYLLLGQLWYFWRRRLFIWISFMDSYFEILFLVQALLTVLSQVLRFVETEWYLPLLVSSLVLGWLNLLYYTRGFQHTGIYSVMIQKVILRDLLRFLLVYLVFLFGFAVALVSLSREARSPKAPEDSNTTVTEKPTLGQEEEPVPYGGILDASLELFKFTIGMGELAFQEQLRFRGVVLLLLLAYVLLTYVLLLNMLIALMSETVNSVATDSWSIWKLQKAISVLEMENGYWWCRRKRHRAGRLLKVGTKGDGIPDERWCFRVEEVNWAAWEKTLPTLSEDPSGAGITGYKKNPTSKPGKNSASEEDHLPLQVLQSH
Method: as §1
as §2, with “studies. […]” for “studies.”

hTRPA1, sequence (O75762 whole entry): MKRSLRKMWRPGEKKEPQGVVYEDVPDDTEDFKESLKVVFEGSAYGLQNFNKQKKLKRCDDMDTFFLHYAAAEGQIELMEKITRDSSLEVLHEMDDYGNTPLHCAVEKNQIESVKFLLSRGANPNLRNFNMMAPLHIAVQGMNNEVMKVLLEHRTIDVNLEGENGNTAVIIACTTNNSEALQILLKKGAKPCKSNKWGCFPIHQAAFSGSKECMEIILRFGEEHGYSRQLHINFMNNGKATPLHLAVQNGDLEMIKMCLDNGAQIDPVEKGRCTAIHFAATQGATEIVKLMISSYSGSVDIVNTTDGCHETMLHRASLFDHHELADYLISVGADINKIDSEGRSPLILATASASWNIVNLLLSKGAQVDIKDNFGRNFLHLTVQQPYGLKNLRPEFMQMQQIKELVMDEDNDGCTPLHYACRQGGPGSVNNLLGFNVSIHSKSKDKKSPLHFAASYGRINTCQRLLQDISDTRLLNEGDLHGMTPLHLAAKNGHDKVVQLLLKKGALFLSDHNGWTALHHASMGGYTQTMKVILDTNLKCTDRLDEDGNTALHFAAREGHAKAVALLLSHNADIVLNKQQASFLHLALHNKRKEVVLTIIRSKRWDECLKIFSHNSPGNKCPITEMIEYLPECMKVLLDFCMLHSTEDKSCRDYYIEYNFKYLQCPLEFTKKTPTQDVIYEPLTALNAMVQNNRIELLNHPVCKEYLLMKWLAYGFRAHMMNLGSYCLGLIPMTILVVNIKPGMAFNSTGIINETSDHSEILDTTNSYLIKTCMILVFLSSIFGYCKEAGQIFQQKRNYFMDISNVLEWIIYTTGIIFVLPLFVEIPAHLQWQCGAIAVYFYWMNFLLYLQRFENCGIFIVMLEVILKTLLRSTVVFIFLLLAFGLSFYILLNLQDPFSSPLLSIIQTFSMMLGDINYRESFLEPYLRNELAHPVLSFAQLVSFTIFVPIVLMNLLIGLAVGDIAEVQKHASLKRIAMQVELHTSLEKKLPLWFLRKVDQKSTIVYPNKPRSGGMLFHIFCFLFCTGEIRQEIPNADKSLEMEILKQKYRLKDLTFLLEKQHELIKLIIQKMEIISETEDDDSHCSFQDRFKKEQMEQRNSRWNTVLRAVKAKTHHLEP

miR-711: mmu-miR-711: gggacccggggagagauguaag (SEQ ID NO: 5) (GGGACCCGGGGAGAGAUGUAAG; chemistry not given here)
calcium responses in TRPA1-expressing HEK293 cells (hTRPA1): evoked calcium responses
current in mutant (mTRPA1 mutants (M1-M13) [1]): further reduction
evoked currents in mutant (mTRPA1 mutants (M1-M13) [2]): markedly reduced
inward currents (TRPV2): failed to trigger inward currents
